The source of these data is patent US20030157715A1, “Modulation of chromosome function by chromatin remodeling agents” (priority 2000, published 2003).

Data set [1] concerns GAGAA repeats (satellite V / bw^D repeats). Nature of the data set: DNase I footprinting on GAGAA repeats (GAF31 and Brown I probes). The data set is classed as binding, Drosophila melanogaster. An excerpt: FIG. 3 Binding specificity of P31 and GAGA factor Panel A: DNAse I footprinting experiment with P31 and affinity cleavage with P31E are shown on GAF31 and the Brown I probes. The GAF31 and Brown I probes contains a (AAGAG)2 motif and GAGA factor (GAF) binding site from the Ubx promoter (Biggin et al., 1988). […] The Brown I oligo (a tandem repeat) includes an (AAGAG)s binding site and a degenerate P31 binding site (AACAC)2 as indicated. P31 concentrations used (nM) are indicated. Lanes labeled P31E (top) are affinity cleavage reactions with 1 nM of P31E on either probe. Binding orientations of P31E on these probes are indicated by arrowheads on the brackets pointing towards the N-terminus of the molecule. The letter G refers the G nucleotide cleavage reaction. Panel B: DNAse I footprinting experiment with purified GAGA factor (GAF) on the GAF31 probe. Note that GAF binds both the (AAGAG)2 motif and the binding site from the Ubx promoter.
A polyamide that targets the abundant satellite V composed of GAGAA repeats (Lohe et al., 1993) was synthesized. Designing molecules that would bind to this repeat motif represented a challenge since with current knowledge, targeting of sequences containing 5′-GNG-3′ or 5′-GA-3′ with drugs composed of pyrrole and imidazole is difficult. However, successful targeting to sequences containing 5′-GTG-3′ was previously achieved using an Im-β-Im motif where β-alanine replaces the function of pyrrole (Turner et al., 1998). Since β-alanine, like pyrroles, is degenerate for […] and T^•A base pairs, we designed a compound based on these observations, to recognize a sequence composed of two tandem GAGAA repeats by systematic placement of -alanine at the N-terminal neighbor of imidazole. The binding affinity and specificity of this compound, termed P31 (=Im-β-Im-Py-β-Im-β-Im-β-Dp), were evaluated by DNAse I footprinting. For this purpose, two different probes were examined, both containing GAGAA repeats. […] The apparent binding constant of P31 for this sequence was estimated at 0.25 nM. […]

A further data set deals with bw^D/bw^D; Ubx^1/+ flies. The experiment in a line: P31 fed to developing Ubx^1/+; bw^D flies. The data set is classed as in vivo, Drosophila melanogaster. An excerpt: P31 enhances haltere-to-wing transformation in heterozygous bw^D/bw; Ubx^1/+ flies: The GAGA factor is know to bind to the promoter of Ubx and to stimulate its transcription in vitro (Biggin and Tjian, 1988) The Trl locus also genetically interacts with Ubx, since Trl^13C dominantly enhances the segmental transformation observed in Ubx heterozygotes. […] We asked, does P31 also chemically mimic the genetic interaction of Ubx and Trl^13C? To address this issue, we fed P31 to two genotypes, +/+; Ubx/+ and bw^D/bw^D; Ubx^1/+. The latter genotype was obtained by crossing bw^D/bw^D; st/st females and bw^D/bw^D Ubx^1/Tm3, sb males.
The progeny of these two genotypes raised in the presence of P31 were scored both for the A6 to A5 and the haltere-to-wing transformations as well as for the sex comb reduced phenotypes (Table 3). […] However, eight of them (out of approximately 100) reached a late pupae stage and thus could be dissected to inspect their morphology. […] This transformation was manifested by an enlarged size and gray color of the halteres, and also by the appearance of numerous bristles at the base of the halteres that are characteristic of the anterior wing margin. […] We conclude that the chemical mimicry by P31 in a bw^D genetic backgrounds extends to the genetic interaction of Trl^13C with Ubx.
The lethality of the progenies was calculated by counting the dead bodies and the total empty pupal shells. The A6 to A5 transformation was detected by bristles that form on abdominal segment A6 on males. All male adult flies obtained (˜50) were scored. Sex combs and halteres were individually inspected and photographed under the microscope (Axiophot, Zeiss) after dissecting at least 30 individuals and incubating them into 30 μl of 0.6 g/ml gum arabic; 4 g/ml chlorohydrate; 35% glycerol under a 24×24 mm coverslip as described (Ashburner, 1989). Since raising double heterozygous flies (Ubx^1/+; bw^D/+) led to lethality, we morphologically dissected eight late stage pupae after carefully removing the pupal envelope.

Take `CN(C)CCCNC(=O)CCNC(=O)c1nc(NC(=O)CCNC(=O)c2nc(NC(=O)CCNC(=O)c3cc(NC(=O)c4nc(NC(=O)CCNC(=O)c5nccn5C)cn4C)cn3C)cn2C)cn1C` [Compound P31, Im-β-Im-Py-β-Im-β-Im-β-Dp]: the “concentration at which bw^D repeats are protected” value in data set [1] (2 consecutive bw^D repeats (GAGAAGAGAA)) is 0.1 nM. Besides, the Kd in data set [1] (DNase I footprinting, read-out: apparent binding constant for two GAGAA repeats) turned out to be 0.25 nM. The “affinity for target binding site (in words)” value in data set [1] (two GAGAA repeats) is listed as “subnanomolar affinity”. The “pupae with clear signs of haltere-to-wing transformation” value with bw^D/bw^D; Ubx^1/+ flies (bw^D/bw^D, Ubx^1/+, dissected late pupae) was “five of eight”. In addition, in the data set on bw^D/bw^D; Ubx^1/+ flies (fly stock Ubx^1/+, bw^D), the “A6 to A5” value came to 100%; the Lethality is 100%; the “Sex comb (mean)” value is on record as 7.4; the “Sex comb, range of teeth” value was 5-9. The “A6 to A5, number of bristles on A6” value in the data set on bw^D/bw^D; Ubx^1/+ flies (fly stock Ubx^1/+, bw^D, dissected late pupae) is 2-6. The “effect on development (in words)” value with bw^D/bw^D; Ubx^1/+ flies (in vivo) is reported as “blocked their development completely”.
